Species: Rattus norvegicus
Experiment: Open TG-GATES - Regimen: Single
Type: toxicity, organism-based, Sprague-Dawley
Set-up: regimen Single, gender Male, age 6 weeks
Conditions: in vivo, iv, 0 mg/kg, route intravenous injection, dose level Control; for APTT / Bas / Eos / Fbg / Hb / Ht / Lym / MCH / MCHC / MCV / Mono / Neu / PT / Plat / RBC / Ret / WBC: tissue Blood; for KIDNEY_L / KIDNEY_R / KIDNEY_TOTAL: tissue Kidney; for LIVER: tissue Liver; for A/G / ALP / ALT / AST / BUN / CRE / Ca / Cl / DBIL / GLC / IP / K / LDH / Na / PL / RALB / TBIL / TC / TG / TP / gamma-GTP: tissue Plasma

C[C@@H]1C[C@@H]([C@H](O)CC2CC(=O)NC(=O)C2)C(=O)[C@@H](C)C1 [CYCLOHEXIMIDE]
TERMINAL_BW (3 h): 221.4 g
APTT (3 h): 21.8 s
Bas (3 h): 0%
Eos (3 h): 1%
Fbg (3 h): 315.6 mg/dL
Hb (3 h): 13.1 g/dL
Ht (3 h): 39.2%
Lym (3 h): 75.6%
MCH (3 h): 21.3 pg
MCHC (3 h): 33.3%
MCV (3 h): 64 fL
Mono (3 h): 2.8%
Neu (3 h): 19.4%
PT (3 h): 16.2 s
Plat (3 h): 120.1 x10_4/uL
RBC (3 h): 612.2 x10_4/ul
Ret (3 h): 8.7%
WBC (3 h): 95.6 x10_2/uL
KIDNEY_L (3 h): 1 g
KIDNEY_R (3 h): 1 g
KIDNEY_TOTAL (3 h): 2 g
LIVER (3 h): 10.2 g
A/G (3 h): 1.2
ALP (3 h): 1480.4 IU/L
ALT (3 h): 44.4 IU/L
AST (3 h): 75.4 IU/L
BUN (3 h): 11.4 mg/dL
CRE (3 h): 0.1 mg/dL
Ca (3 h): 10.4 mg/dL
Cl (3 h): 106.8 meq/L
DBIL (3 h): 0.004 mg/dL
GLC (3 h): 187 mg/dL
IP (3 h): 9.1 mg/dL
K (3 h): 4 meq/L
LDH (3 h): 171.8 IU/L
Na (3 h): 141 meq/L
PL (3 h): 130.8 mg/dL
RALB (3 h): 2.9 g/dL
TBIL (3 h): 0.024 mg/dL
TC (3 h): 76.8 mg/dL
TG (3 h): 49.2 mg/dL
TP (3 h): 5.2 g/dL
gamma-GTP (3 h): 1.4 IU/L
TERMINAL_BW (6 h): 214.4 g
APTT (6 h): 22.6 s
Bas (6 h): 0%
Eos (6 h): 1%
Fbg (6 h): 314.4 mg/dL
Hb (6 h): 13.4 g/dL
Ht (6 h): 39.9%
Lym (6 h): 78.2%
MCH (6 h): 21.4 pg
MCHC (6 h): 33.6%
MCV (6 h): 64 fL
Mono (6 h): 2.8%
Neu (6 h): 17.2%
PT (6 h): 15.5 s
Plat (6 h): 113.8 x10_4/uL
RBC (6 h): 624 x10_4/ul
Ret (6 h): 8.7%
WBC (6 h): 88.7 x10_2/uL
KIDNEY_L (6 h): 1 g
KIDNEY_R (6 h): 1 g
KIDNEY_TOTAL (6 h): 2 g
LIVER (6 h): 9.4 g
A/G (6 h): 1.3
ALP (6 h): 1423 IU/L
ALT (6 h): 38.6 IU/L
AST (6 h): 71.6 IU/L
BUN (6 h): 10 mg/dL
CRE (6 h): 0.1 mg/dL
Ca (6 h): 10.5 mg/dL
Cl (6 h): 107.2 meq/L
DBIL (6 h): 0.002 mg/dL
GLC (6 h): 177 mg/dL
IP (6 h): 9.2 mg/dL
K (6 h): 4.2 meq/L
LDH (6 h): 198.8 IU/L
Na (6 h): 140.8 meq/L
PL (6 h): 139.6 mg/dL
RALB (6 h): 2.9 g/dL
TBIL (6 h): 0.036 mg/dL
TC (6 h): 78.6 mg/dL
TG (6 h): 52 mg/dL
TP (6 h): 5.2 g/dL
gamma-GTP (6 h): 1.2 IU/L
TERMINAL_BW (9 h): 215.8 g
APTT (9 h): 23.2 s
Bas (9 h): 0%
Eos (9 h): 0.6%
Fbg (9 h): 313.4 mg/dL
Hb (9 h): 12.9 g/dL
Ht (9 h): 38.5%
Lym (9 h): 78.8%
MCH (9 h): 20.8 pg
MCHC (9 h): 33.4%
MCV (9 h): 62.2 fL
Mono (9 h): 2%
Neu (9 h): 17.8%
PT (9 h): 15.8 s
Plat (9 h): 109.2 x10_4/uL
RBC (9 h): 620.6 x10_4/ul
Ret (9 h): 8.1%
WBC (9 h): 65.1 x10_2/uL
KIDNEY_L (9 h): 1 g
KIDNEY_R (9 h): 1 g
KIDNEY_TOTAL (9 h): 2 g
LIVER (9 h): 9 g
A/G (9 h): 1.3
ALP (9 h): 1329.2 IU/L
ALT (9 h): 37.4 IU/L
AST (9 h): 71 IU/L
BUN (9 h): 10 mg/dL
CRE (9 h): 0.1 mg/dL
Ca (9 h): 10.4 mg/dL
Cl (9 h): 106.4 meq/L
DBIL (9 h): 0.002 mg/dL
GLC (9 h): 176 mg/dL
IP (9 h): 9.7 mg/dL
K (9 h): 3.9 meq/L
LDH (9 h): 164.6 IU/L
Na (9 h): 142.4 meq/L
PL (9 h): 125.8 mg/dL
RALB (9 h): 3 g/dL
TBIL (9 h): 0.036 mg/dL
TC (9 h): 72.4 mg/dL
TG (9 h): 37.6 mg/dL
TP (9 h): 5.4 g/dL
gamma-GTP (9 h): 1.4 IU/L
TERMINAL_BW (24 h): 229.3 g
APTT (24 h): 22.3 s
Bas (24 h): 0%
Eos (24 h): 1%
Fbg (24 h): 319.8 mg/dL
Hb (24 h): 13.5 g/dL
Ht (24 h): 40.3%
Lym (24 h): 80.6%
MCH (24 h): 21 pg
MCHC (24 h): 33.5%
MCV (24 h): 62.5 fL
Mono (24 h): 2.8%
Neu (24 h): 14.6%
PT (24 h): 16 s
Plat (24 h): 119 x10_4/uL
RBC (24 h): 643.8 x10_4/ul
Ret (24 h): 8.7%
WBC (24 h): 90.5 x10_2/uL
KIDNEY_L (24 h): 1 g
KIDNEY_R (24 h): 1 g
KIDNEY_TOTAL (24 h): 2 g
LIVER (24 h): 11 g
A/G (24 h): 1.2
ALP (24 h): 1510.6 IU/L
ALT (24 h): 38.2 IU/L
AST (24 h): 65.8 IU/L
BUN (24 h): 16 mg/dL
CRE (24 h): 0.1 mg/dL
Ca (24 h): 10.8 mg/dL
Cl (24 h): 106 meq/L
DBIL (24 h): 0 mg/dL
GLC (24 h): 202.2 mg/dL
IP (24 h): 7.7 mg/dL
K (24 h): 4.2 meq/L
LDH (24 h): 179.2 IU/L
Na (24 h): 140.4 meq/L
PL (24 h): 142.8 mg/dL
RALB (24 h): 3 g/dL
